Usually inhibition stands for how much of the control response was suppressed.

Counter-ions that a name gives are not always drawn.

The subject of this test is Rhizoctonia solani. Kind of test: Mycelial growth test. The note with it: RS; for Percent Fungus Growth Inhibition: 72 hours; for inhibition at 5 ppm / inhibition at 10 ppm / inhibition at 20 ppm / inhibition at 40 ppm: Rhizoctonia solani, 72 h, read-out: Percent Fungus Growth Inhibition. It is filed as cell-based. An excerpt:
| RS = Rhizoctonia solani

“3-chloro-5-(bromophenoxy)-4H-1,2,6-thiadiazin-4-one [Compound 33]”: the “Percent Fungus Growth Inhibition” value is, setting by setting: (5 ppm) 31%; (10 ppm) 42%; (20 ppm) 64%; (40 ppm) 100%.

Take “3-chloro-5-[methylaminocarbonyloxy)phenoxyl]-4H-1,2,6-thiadiazin-4-one [Compound 36]”: the “Percent Fungus Growth Inhibition” value is 0% (5 ppm), 4% (10 ppm), 42% (20 ppm) and 87% (40 ppm).

With `O=c1c(Cl)nsnc1Oc1ccccc1` [Compound 2, 3-chloro-5-phenoxy-4H--1,2,6-thiadiazin-4-one], under “5 ppm”, the inhibition at 5 ppm worked out at 0%. Moreover, for the setting “10 ppm”, the inhibition at 10 ppm turned out to be 42%. For the same compound, the inhibition at 20 ppm (20 ppm) worked out at 100%. Besides, the inhibition at 40 ppm (40 ppm) came out at 78%.

Take `Cc1ccc(Oc2nsnc(Cl)c2=O)cc1` [Compound 3, 3-chloro-5-(4-methylphenoxy)-4H--1,2,6-thiadiazin-4-one]: the inhibition at 5 ppm (5 ppm) is 0%. For the same compound, for the setting “10 ppm”, the inhibition at 10 ppm turned out to be 20%. Also, the inhibition at 20 ppm (20 ppm) was found to be 56%. Where the note is “40 ppm”, the inhibition at 40 ppm was 100%.

`CC(C)(C)c1ccc(Oc2nsnc(Cl)c2=O)cc1` [Compound 4, 3-chloro-5-(4-tert-butylphnoxy)-4H--1,2,6-thiadiazin-4-one]: under “5 ppm”, the inhibition at 5 ppm was found to be 0%. In addition, the inhibition at 10 ppm (10 ppm) turned out to be 0%. For the same compound, for the setting “20 ppm”, the inhibition at 20 ppm came to 0%. Further, the inhibition at 40 ppm (40 ppm) worked out at 0%.

As to `COc1ccc(Oc2nsnc(Cl)c2=O)cc1` [Compound 5, 3-chloro-5-(4-methoxyphenoxy)4H--1,2,6-thiadiazin-4-one], the inhibition at 5 ppm (5 ppm) was 0%. Moreover, for the setting “10 ppm”, the inhibition at 10 ppm worked out at 0%. Further, the inhibition at 20 ppm (20 ppm) was 38%. Further, the inhibition at 40 ppm (40 ppm) turned out to be 64%.

As to `CCCCOc1ccc(Oc2nsnc(Cl)c2=O)cc1` [Compound 6, 3-chloro-5-(4-n-butoxyphenoxy)-4H--1,2,6-thiadiazin-4-one], under “5 ppm”, the inhibition at 5 ppm was found to be 0%. Besides, the inhibition at 10 ppm (10 ppm) turned out to be 0%. Also, the inhibition at 20 ppm (20 ppm) was determined as 0%. In addition, under “40 ppm”, the inhibition at 40 ppm was determined as 20%.

`CCOC(=O)c1ccc(Oc2nsnc(Cl)c2=O)cc1` [Compound 7, 3-chloro-5-(4-ethoxycarbonylphenoxy)-4H--1,2,6-thiadiazin-4-one]: the inhibition at 5 ppm (5 ppm) was 7%. Moreover, the inhibition at 10 ppm (10 ppm) worked out at 33%. The inhibition at 20 ppm (20 ppm) was 53%. In addition, the inhibition at 40 ppm (40 ppm) stood at 76%.

For `CC(=O)Nc1ccc(Oc2nsnc(Cl)c2=O)cc1` [Compound 8, 5-(4-acetylaminophenoxy)-3-chloro-4H--1,2,6-thiadiazin-4-one], for the setting “5 ppm”, the inhibition at 5 ppm was found to be 0%. Further, the inhibition at 10 ppm (10 ppm) was found to be 0%. Moreover, the inhibition at 20 ppm (20 ppm) was 7%. For the same compound, the inhibition at 40 ppm (40 ppm) turned out to be 42%.

Consider `O=c1c(Cl)nsnc1Oc1ccc([N+](=O)[O-])cc1` [Compound 9, 3-chloro-5-(4-nitrophenoxy)-4H--1,2,6-thiadiazin-4-one], for which the inhibition at 5 ppm (5 ppm) came to 13%. Besides, the inhibition at 10 ppm (10 ppm) is 42%. In addition, where the note is “20 ppm”, the inhibition at 20 ppm is 69%. Further, the inhibition at 40 ppm (40 ppm) was 78%.

`N#Cc1ccc(Oc2nsnc(Cl)c2=O)cc1` [Compound 10, 3-chloro-5-(4-cyanophenoxy)-4H--1,2,6-thiadiazin-4-one]: the inhibition at 5 ppm (5 ppm) was 9%. In addition, the inhibition at 10 ppm (10 ppm) turned out to be 13%. Also, the inhibition at 20 ppm (20 ppm) turned out to be 100%. Besides, under “40 ppm”, the inhibition at 40 ppm was determined as 100%.

As to `O=c1c(Cl)nsnc1Oc1ccc(F)cc1` [Compound 11, 3-chloro-5-(4-fluorophenoxy)-4H--1,2,6-thiadiazin-4-one], the inhibition at 5 ppm (5 ppm) turned out to be 0%. Besides, the inhibition at 10 ppm (10 ppm) turned out to be 38%. In addition, the inhibition at 20 ppm (20 ppm) amounted to 76%. Further, the inhibition at 40 ppm (40 ppm) was determined as 91%.

Turning to `O=c1c(Cl)nsnc1Oc1ccc(Cl)cc1` [Compound 12, 3-chloro-5-(4-chlorophenoxy)-4H--1,2,6-thiadiazin-4-one], the inhibition at 5 ppm (5 ppm) turned out to be 20%. Also, the inhibition at 10 ppm (10 ppm) worked out at 58%. In addition, for the setting “20 ppm”, the inhibition at 20 ppm was 64%. The inhibition at 40 ppm (40 ppm) worked out at 100%.

For the compound `O=c1c(Cl)nsnc1Oc1cccc(Cl)c1` [Compound 13, 3-chloro-5-(3-chlorophenoxy)-4H--1,2,6-thiadiazin-4-one], the inhibition at 5 ppm (5 ppm) was 24%. Also, where the note is “10 ppm”, the inhibition at 10 ppm is 53%. In addition, where the note is “20 ppm”, the inhibition at 20 ppm was 69%. Moreover, the inhibition at 40 ppm (40 ppm) came to 76%.

Consider `O=c1c(Cl)nsnc1Oc1ccccc1Cl` [Compound 14, 3-chloro-5-(2-chlorophenoxy)-4H--1,2,6-thiadiazin-4-one], for which the inhibition at 5 ppm (5 ppm) was determined as 53%. For the same compound, the inhibition at 10 ppm (10 ppm) stood at 56%. Also, the inhibition at 20 ppm (20 ppm) is 76%. In addition, the inhibition at 40 ppm (40 ppm) stood at 91%.

On to `O=c1c(Cl)nsnc1Oc1ccc(Br)cc1` [Compound 15, 3-chloro-5-(4-bromophenoxy)-4H--1,2,6-thiadiazin-4-one], for which, under “5 ppm”, the inhibition at 5 ppm amounted to 13%. Also, the inhibition at 10 ppm (10 ppm) amounted to 38%. For the same compound, the inhibition at 20 ppm (20 ppm) turned out to be 38%. Further, where the note is “40 ppm”, the inhibition at 40 ppm worked out at 53%.

Take `O=c1c(Cl)nsnc1Oc1ccc(Cl)c(Cl)c1` [Compound 16, 3-chloro-5-(3,4-dichlorophenoxy)-4H--1,2,6-thiadiazin-4-one]: where the note is “5 ppm”, the inhibition at 5 ppm is 29%. Further, where the note is “10 ppm”, the inhibition at 10 ppm is 31%. Further, the inhibition at 20 ppm (20 ppm) came to 31%. Further, where the note is “40 ppm”, the inhibition at 40 ppm came to 69%.

For `O=c1c(Cl)nsnc1Oc1ccc(Cl)cc1Cl` [Compound 17, 3-chloro-5-(2,4-dichlorophenoxy)-4H--1,2,6-thiadiazin-4-one], where the note is “5 ppm”, the inhibition at 5 ppm was found to be 40%. Also, the inhibition at 10 ppm (10 ppm) worked out at 53%. Besides, the inhibition at 20 ppm (20 ppm) is 76%. In addition, for the setting “40 ppm”, the inhibition at 40 ppm worked out at 76%.

Turning to `O=c1c(Cl)nsnc1Oc1c(Cl)cccc1Cl` [Compound 18, 3-chloro-5-(2,6-dichlorophenoxy)-4H--1,2,6-thiadiazin-4-one], the inhibition at 5 ppm (5 ppm) was found to be 42%. Also, the inhibition at 10 ppm (10 ppm) was determined as 56%. Further, for the setting “20 ppm”, the inhibition at 20 ppm worked out at 76%. Further, the inhibition at 40 ppm (40 ppm) was 87%.

On to `O=c1c(Cl)nsnc1Oc1cccc(Cl)c1Cl` [Compound 19, 3-chloro-5-(2,3-dichlorophenoxy)-4H--1,2,6-thiadiazin-4-one], for which, for the setting “5 ppm”, the inhibition at 5 ppm turned out to be 29%. For the setting “10 ppm”, the inhibition at 10 ppm worked out at 47%. Further, under “20 ppm”, the inhibition at 20 ppm came to 69%. Further, the inhibition at 40 ppm (40 ppm) came to 82%.

With `O=c1c(Cl)nsnc1Oc1cc(Cl)cc(Cl)c1` [Compound 20, 3-chloro-5-(3,5-dichlorophenoxy)-4H--1,2,6-thiadiazin-4-one], the inhibition at 5 ppm (5 ppm) came out at 51%. For the same compound, where the note is “10 ppm”, the inhibition at 10 ppm was determined as 58%. In addition, the inhibition at 20 ppm (20 ppm) is 76%. For the same compound, the inhibition at 40 ppm (40 ppm) is 78%.

Turning to `Cc1cccc(Oc2nsnc(Cl)c2=O)c1` [Compound 21, 3-chloro-5-(3-methylphenoxy)-4H--1,2,6-thiadiazin-4-one], the inhibition at 5 ppm (5 ppm) stood at 53%. Also, the inhibition at 10 ppm (10 ppm) turned out to be 64%. The inhibition at 20 ppm (20 ppm) stood at 87%. Also, the inhibition at 40 ppm (40 ppm) worked out at 100%.

With `Cc1ccccc1Oc1nsnc(Cl)c1=O` [Compound 22, 3-chloro-5-(2-methylphenoxy)-4H--1,2,6-thiadiazin-4-one], the inhibition at 5 ppm (5 ppm) was determined as 42%. For the same compound, under “10 ppm”, the inhibition at 10 ppm was 62%. For the same compound, the inhibition at 20 ppm (20 ppm) amounted to 91%. Further, the inhibition at 40 ppm (40 ppm) turned out to be 100%.

With `Cc1ccc(Oc2nsnc(Cl)c2=O)c(C)c1` [Compound 23, 3-chloro-5-(2,4-dimethylphenoxy)-4H--1,2,6-thiadiazin-4-one], the inhibition at 5 ppm (5 ppm) came to 20%. Moreover, the inhibition at 10 ppm (10 ppm) was determined as 53%. Besides, the inhibition at 20 ppm (20 ppm) stood at 73%. Moreover, the inhibition at 40 ppm (40 ppm) was 78%.

Take `Cc1cccc(C)c1Oc1nsnc(Cl)c1=O` [Compound 24, 3-chloro-5-(2,6-dimethylphenoxy)-4H--1,2,6-thiadiazin-4-one]: the inhibition at 5 ppm (5 ppm) came out at 20%. For the same compound, the inhibition at 10 ppm (10 ppm) came out at 64%. The inhibition at 20 ppm (20 ppm) amounted to 82%. For the same compound, the inhibition at 40 ppm (40 ppm) amounted to 100%.

On to `Cc1cc(C)cc(Oc2nsnc(Cl)c2=O)c1` [Compound 25, 3-chloro-5-(3,5-dimethylphenoxy)-4H--1,2,6-thiadiazin-4-one], for which the inhibition at 5 ppm (5 ppm) worked out at 20%. The inhibition at 10 ppm (10 ppm) is 64%. Also, the inhibition at 20 ppm (20 ppm) is 80%. Moreover, under “40 ppm”, the inhibition at 40 ppm came out at 78%.

For `Nc1ccc(Oc2nsnc(Cl)c2=O)cc1` [Compound 26, 5-(4-aminophenoxy)-3-chloro-4H--1,2,6-thiadiazin-4-one], the “Percent Fungus Growth Inhibition” value (10 ppm) is given as 53%. The inhibition at 5 ppm (5 ppm) worked out at 0%. Moreover, for the setting “20 ppm”, the inhibition at 20 ppm is 42%. The inhibition at 40 ppm (40 ppm) was 76%.

Consider `Nc1ccc(Oc2nsnc(Cl)c2=O)cc1` [Compound 27, 5-(4-aminophenoxy)-3-chloro-4H--1,2,6-thiadiazine-4-one hydrochloride], for which the “Percent Fungus Growth Inhibition” value (10 ppm, hydrochloride) was 31%; the “Percent Fungus Growth Inhibition” value (20 ppm, hydrochloride) worked out at 24%; the “Percent Fungus Growth Inhibition” value (40 ppm, hydrochloride) stood at 64%.

For `CNC(=O)Nc1ccc(Oc2nsnc(Cl)c2=O)cc1` [Compound 28, 3-chloro-5-[4-(3-methylureido)-phenoxy]-4H--1,2,6-thiadiazin-4-one], under “5 ppm”, the inhibition at 5 ppm came to 20%. Further, the inhibition at 10 ppm (10 ppm) was 47%. Besides, the inhibition at 20 ppm (20 ppm) amounted to 24%. The inhibition at 40 ppm (40 ppm) worked out at 47%.

For the compound `O=C(Nc1ccccc1)Nc1ccc(Oc2nsnc(Cl)c2=O)cc1` [Compound 29, 3-chloro-5-[4-(3-phenylureido)-phenoxy]-4H--1,2,6-thiadiazin-4-one], the inhibition at 5 ppm (5 ppm) worked out at 0%. Also, where the note is “10 ppm”, the inhibition at 10 ppm stood at 31%. The inhibition at 20 ppm (20 ppm) amounted to 0%. Further, the inhibition at 40 ppm (40 ppm) is 29%.

With `O=c1c(Cl)nsnc1Oc1c(Cl)cc(Cl)cc1Cl` [Compound 30, 3-chloro-5-(2,4,6-trichlorophenoxy)-4H--1,2,6-thiadiazin-4-one], where the note is “5 ppm”, the inhibition at 5 ppm stood at 42%. Also, for the setting “10 ppm”, the inhibition at 10 ppm is 62%. Besides, the inhibition at 20 ppm (20 ppm) came out at 69%. The inhibition at 40 ppm (40 ppm) was 80%.

Turning to `O=c1c(Cl)nsnc1Oc1c(Cl)c(Cl)c(Cl)c(Cl)c1Cl` [Compound 31, 3-chloro-5-(pentachlorophenoxy)-4H--1,2,6-thiadiazine-4-one], the inhibition at 5 ppm (5 ppm) stood at 53%. The inhibition at 10 ppm (10 ppm) is 69%. Moreover, the inhibition at 20 ppm (20 ppm) worked out at 73%. Also, the inhibition at 40 ppm (40 ppm) is 76%.

For `O=c1c(Cl)nsnc1Oc1cccc2ccccc12` [Compound 32, 3-chloro-5(1-naphthoxy)-4H-1,2,6-thiadiazin-4-one], the inhibition at 5 ppm (5 ppm) stood at 76%. In addition, the inhibition at 10 ppm (10 ppm) worked out at 42%. Besides, the inhibition at 20 ppm (20 ppm) turned out to be 69%. For the same compound, for the setting “40 ppm”, the inhibition at 40 ppm was 73%.

The record behind these values is patent US4450269A, “Mono-5-substituted-3-chloro-4H-1,2,6-thiadiazin-4-one antifungal agents” (FMC Corporation, priority 1980, dated 1984).
